From ChEMBL document CHEMBL5725882, “Imide and acylurea derivatives as modulators of the glucocorticoid receptor” (2017) come the findings set out here.

The target of this assay is T1, Glucocorticoid receptor (Homo sapiens, UniProt P04150).
T1 sequence (P04150 whole entry): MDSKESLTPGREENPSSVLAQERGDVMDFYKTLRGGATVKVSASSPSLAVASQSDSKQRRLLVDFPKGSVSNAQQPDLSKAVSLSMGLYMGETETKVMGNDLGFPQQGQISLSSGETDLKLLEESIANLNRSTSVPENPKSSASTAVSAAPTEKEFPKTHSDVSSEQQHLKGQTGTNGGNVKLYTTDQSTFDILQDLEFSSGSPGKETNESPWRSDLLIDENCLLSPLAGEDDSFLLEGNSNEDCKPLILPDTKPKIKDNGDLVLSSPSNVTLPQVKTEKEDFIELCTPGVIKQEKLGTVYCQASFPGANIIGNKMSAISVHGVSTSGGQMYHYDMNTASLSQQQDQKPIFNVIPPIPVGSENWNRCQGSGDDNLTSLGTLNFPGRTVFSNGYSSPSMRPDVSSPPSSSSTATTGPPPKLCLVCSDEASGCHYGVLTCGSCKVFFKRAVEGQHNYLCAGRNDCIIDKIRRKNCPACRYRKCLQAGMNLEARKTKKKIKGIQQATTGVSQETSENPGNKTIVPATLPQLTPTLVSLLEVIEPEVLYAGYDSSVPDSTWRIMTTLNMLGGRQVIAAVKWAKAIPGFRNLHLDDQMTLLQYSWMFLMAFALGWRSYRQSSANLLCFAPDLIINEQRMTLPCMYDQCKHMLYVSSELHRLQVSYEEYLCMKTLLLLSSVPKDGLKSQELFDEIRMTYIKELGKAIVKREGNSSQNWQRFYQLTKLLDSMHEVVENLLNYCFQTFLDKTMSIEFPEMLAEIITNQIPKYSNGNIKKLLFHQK
Put plainly: Briefly, purified human recombinant full-length glucocorticoid receptor (2 nM) was mixed with fluorescently labeled glucocorticoid (1 nM Fluormone GS Red) in the presence or absence of test compound. After two hour incubation at room temperature in the dark, the fluorescence polarization (FP) of the samples was measured. […] Test compounds were analyzed in the concentration range from 8.5E-05 μM to 5 μM. Binding Assay (II):In order to measure the binding of compounds on the glucocorticoid receptor a commercially available kit was used (Glucocorticoid receptor competitor assay kit, PanVera Co., Madison, Wis., P2816). Briefly, a cell lysate containing recombinantly expressed human full-length glucocorticoid receptor was mixed with a fluorescently labeled glucocorticoid (1 nM Fluormone GS1) in the presence or absence of test compound. After one hour at room temperature, the fluorescence polarization (FP) of the samples were measured. […] An appropriate cell lysate or purified NHR is used as the source of the NHR. The fluorescent probe and unlabeled competitor are appropriate for the specific NHR, i.e., are ligands for the specific NHR. For orientation: Fluorescence polarisation rises when a labelled molecule tumbles more slowly, as on binding a larger partner.
By Ki is commonly meant a dissociation constant, usually derived from enzyme kinetics or from competition with a known ligand. As for `COC(=O)NC(=O)C(C)(C)[C@@H]1c2ccc(-c3ccc(C(=O)OC)cc3)nc2Oc2c(F)cccc21`, the Ki is 0.00528 µM.
With `CNC(=O)NC(=O)C(C)(C)[C@@H]1c2ccc(-c3ccc(C(C)(C)O)cc3)nc2Oc2c(F)cccc21`, the Ki worked out at 0.00142 µM.
For the compound `CC(C)(C(=O)NC(=O)NCCO)[C@@H]1c2ccc(-c3ccc(C(=O)N4CCOCC4)cc3)nc2Oc2c(F)cccc21`, the Ki worked out at 0.0617 µM.
On to `CC(C)(O)CNC(=O)NC(=O)C(C)(C)[C@@H]1c2ccc(-c3ccc(C(=O)N4CCOCC4)cc3)nc2Oc2c(F)cccc21`, for which the Ki came to 0.0871 µM.
Turning to `CC(C)(O)CNC(=O)NC(=O)C(C)(C)[C@@H]1c2ccc(-c3ccc(C(C)(C)O)cc3)nc2Oc2c(F)cccc21`, the Ki came to 0.0208 µM.
Consider `CC(C)(C(=O)NC(N)=O)[C@@H]1c2ccc(-c3ccc(C(=O)N4CCC4)cc3)nc2Oc2c(F)cccc21`, for which the Ki stood at 0.00093 µM.
As for `CC(C)(O)c1ccc(-c2ccc3c(n2)Oc2c(F)cccc2[C@@H]3C(C)(C)C(=O)NC(=O)NCCO)cc1`, the Ki was 0.0251 µM.
Take `CC(C)NC(=O)NC(=O)C(C)(C)[C@@H]1c2ccc(-c3ccc(C(=O)N4CCOCC4)cc3)nc2Oc2c(F)cccc21`: the Ki amounted to 0.0324 µM.
Then `CC(C)(C(=O)NC(N)=O)[C@H]1c2ccccc2Oc2nc(-c3ccc(C(=O)N4CCOCC4)cc3)ccc21`, with 0.00181 µM; and `CC(C)(O)c1ccc(-c2ccc3c(n2)Oc2c(F)cccc2[C@@H]3C(C)(C)C(=O)NC(N)=O)cc1`, with 0.00032 µM; and `CC(C)S(=O)(=O)c1ccc(-c2ccc3c(n2)Oc2ccccc2[C@@H]3C(C)(C)C(=O)NC(N)=O)cc1`, with 0.00058 µM.
On to `COc1ccc2c(c1)Oc1ccccc1[C@@H]2C(C)(C)C(=O)NC(N)=O`, for which the inhibition constant Ki came to 0.00857 µM.
Regarding `CCC(=O)NC(=O)C(C)(C)[C@@H]1c2ccc(-c3ccc(C(=O)N4CCOCC4)cc3)nc2Oc2c(F)cccc21`, the Ki came to 0.0665 µM.
Then `CC(=O)NC(=O)C(C)(C)[C@@H]1c2ccc(-c3ccc(C(=O)N(C)C)cc3)nc2Oc2c(F)cccc21`, with 0.0935 µM.
For the compound `CC(C)(C(=O)NC(=O)N1CCOCC1)[C@@H]1c2ccc(-c3ccc(C(=O)N4CCOCC4)cc3)nc2Oc2c(F)cccc21`, the Ki came out at 0.171 µM.
Then `CNC(=O)NC(=O)C(C)(C)[C@@H]1c2ccc(Cl)nc2Oc2c(F)cccc21`, with 0.0375 µM; and `CC(=O)NC(=O)C(C)(C)[C@H]1c2ccccc2Oc2nc(-c3ccc(C(=O)N4CCOCC4)cc3)ccc21`, with 0.00701 µM.
